# Source: ChEMBL document CHEMBL1132521, “Synthesis and hypoglycemic effect of chrysin derivatives” (Bioorg Med Chem Lett, 1999)
# How the values were obtained:
# Mus musculus [1] = assay: In vivo hypoglycemic activity after administration (45 mg/kg) in mice on day 0 was determined; type: functional
# Mus musculus [2] = assay: In vivo hypoglycemic activity after administration (45 mg/kg) in mice on day 7 was determined; type: functional
# [3] = Ratio of hypoglycemic activity in mice was tested on day 7.; type: functional
# Mus musculus [4] = assay: In vivo hypoglycemic activity after administration (43 mg/kg) in mice on day 0 was determined; type: functional
# Mus musculus [5] = assay: In vivo hypoglycemic activity after administration (43 mg/kg) in mice on day 7 was determined; type: functional
# Mus musculus [6] = assay: In vivo hypoglycemic activity after administration (50 mg/kg) in mice on day 0 was determined; type: functional
# Mus musculus [7] = assay: In vivo hypoglycemic activity after administration (50 mg/kg) in mice on day 7 was determined; type: functional
# Mus musculus [8] = assay: Abnormal symptoms was determined in mouse after oral administration of 100 mg/kg; - sign indicates abnormal symptoms in treated mouse; type: functional, organism-based; parameters: dose 100 mg/kg
# Mus musculus [9] = assay: Abnormal symptoms was determined in mouse after oral administration of 20 mg/kg; - sign indicates abnormal symptoms in treated mouse; type: functional, organism-based; parameters: dose 20 mg/kg
# Mus musculus [10] = assay: Abnormal symptoms was determined in mouse after oral administration of 500 mg/kg; - sign indicates abnormal symptoms in treated mouse; type: functional, organism-based; parameters: dose 500 mg/kg
# Mus musculus [11] = assay: Abnormal symptoms was determined in mouse after oral administration of 5 mg/kg; - sign indicates abnormal symptoms in treated mouse; type: functional, organism-based; parameters: dose 5 mg/kg
# Mus musculus [12] = assay: Body weight was determined in mouse after oral administration of 500 mg/kg on day 0; type: functional
# Mus musculus [13] = assay: Body weight was determined in mouse after oral administration of 500 mg/kg on day 7; type: functional
# Mus musculus [14] = assay: Body weight was determined in mouse after oral administration of 5 mg/kg on day 0; type: functional
# Mus musculus [15] = assay: Body weight was determined in mouse after oral administration of 5 mg/kg on day 7; type: functional
# Mus musculus [16] = assay: Body weight was determined in mouse after oral administration of 100 mg/kg on day 0; type: functional
# Mus musculus [17] = assay: Body weight was determined in mouse after oral administration of 100 mg/kg on day 7; type: functional
# Mus musculus [18] = assay: Body weight was determined in mouse after oral administration of 20 mg/kg on day 0; type: functional
# Mus musculus [19] = assay: Body weight was determined in mouse after oral administration of 20 mg/kg on day 7; type: functional
# Mus musculus [20] = assay: Daily food consumption was determined in mouse after oral administration of 100 mg/kg; type: functional
# Mus musculus [21] = assay: Daily food consumption was determined in mouse after oral administration of 20 mg/kg; type: functional
# Mus musculus [22] = assay: Daily food consumption was determined in mouse after oral administration of 500 mg/kg; type: functional
# Mus musculus [23] = assay: Daily water consumption was determined in mouse after oral administration of 100 mg/kg; type: functional
# Mus musculus [24] = assay: Daily water consumption was determined in mouse after oral administration of 20 mg/kg; type: functional
# Mus musculus [25] = assay: Daily water consumption was determined in mouse after oral administration of 500 mg/kg; type: functional
# Mus musculus [26] = assay: Daily water consumption was determined in mouse after oral administration of 5 mg/kg; type: functional
# Rattus norvegicus [27] = assay: Abnormal symptoms was determined in rat after oral administration of 500 mg/kg; - sign indicates abnormal symptoms in treated mouse; type: functional, organism-based; parameters: dose 500 mg/kg
# Rattus norvegicus [28] = assay: Body weight was determined in rat after oral administration of 500 mg/kg on day 0; type: functional
# Rattus norvegicus [29] = assay: Body weight was determined in rat after oral administration of 500 mg/kg on day 7; type: functional
# Rattus norvegicus [30] = assay: Daily food consumption was determined in rat after oral administration of 500 mg/kg; type: functional
# Rattus norvegicus [31] = assay: Kidney weight was determined in rat after oral administration of 500 mg/kg; type: functional
# Rattus norvegicus [32] = assay: Liver weight was determined in rat after oral administration of 500 mg/kg; type: functional; parameters: unit not given beside the values
# Rattus norvegicus [33] = assay: Lung weight was determined in rat after oral administration of 500 mg/kg; type: functional; parameters: unit not given beside the values
# Mus musculus [34] = assay: Daily food consumption was determined in mouse after oral administration of 5 mg/kg; type: functional
# Rattus norvegicus [35] = assay: Spleen weight was determined in rat after oral administration of 500 mg/kg; type: functional; parameters: unit not given beside the values
# Rattus norvegicus [36] = assay: Daily water consumption was determined in rat after oral administration of 500 mg/kg; type: functional
# Mus musculus [37] = assay: In vivo hypoglycemic activity after administration (40 mg/kg) in mice on day 0 was determined; type: functional
# Mus musculus [38] = assay: In vivo hypoglycemic activity after administration (40 mg/kg) in mice on day 7 was determined; type: functional
compound,measurement,setting,value
O=c1cc(-c2ccccc2)oc2cc(O)cc(O)c12 [CHRYSIN],Blood glucose,Mus musculus [1],482.4 mg/dL
same,Blood glucose,Mus musculus [2],503.5 mg/dL
same,Ratio,[3],104.4
CC(=O)Oc1cc(OC(C)=O)c2c(=O)cc(-c3ccccc3)oc2c1 [CHRYSIN DIACETATE],Blood glucose,Mus musculus [4],472 mg/dL
same,Blood glucose,Mus musculus [5],341.5 mg/dL
same,Ratio,[3],72.4
O=C(Cc1ccccc1)Oc1cc(O)c2c(=O)cc(-c3ccccc3)oc2c1,Blood glucose,Mus musculus [6],496.2 mg/dL
same,Blood glucose,Mus musculus [7],515.6 mg/dL
same,Ratio,[3],103.9
CCCCOc1cc(O)c2c(=O)cc(-c3ccccc3)oc2c1,Blood glucose,Mus musculus [6],545.6 mg/dL
same,Blood glucose,Mus musculus [7],252.4 mg/dL
same,Activity,Mus musculus [8],abnormal symptoms in treated mouse
same,Activity,Mus musculus [9],abnormal symptoms in treated mouse
same,Activity,Mus musculus [10],abnormal symptoms in treated mouse
same,Activity,Mus musculus [11],abnormal symptoms in treated mouse
same,Body weight,Mus musculus [12],24.3
same,Body weight,Mus musculus [13],31.3
same,Body weight,Mus musculus [14],24.9
same,Body weight,Mus musculus [15],32.7
same,Body weight,Mus musculus [16],23.5
same,Body weight,Mus musculus [17],31
same,Body weight,Mus musculus [18],23.8
same,Body weight,Mus musculus [19],30.6
same,Food intake,Mus musculus [20],50.53
same,Food intake,Mus musculus [21],52.81
same,Food intake,Mus musculus [22],50.4
same,Water consumption,Mus musculus [23],80.92 mL
same,Water consumption,Mus musculus [24],79.33 mL
same,Water consumption,Mus musculus [25],82.83 mL
same,Water consumption,Mus musculus [26],82.5 mL
same,Activity,Rattus norvegicus [27],abnormal symptoms in treated mouse
same,Body weight,Rattus norvegicus [28],235
same,Body weight,Rattus norvegicus [29],293.3
same,Food intake,Rattus norvegicus [30],113.58
same,Organ weight,Rattus norvegicus [31],1.04
same,Organ weight,Rattus norvegicus [32],10.74
same,Organ weight,Rattus norvegicus [33],1.22
same,Ratio,[3],46.3
same,Food intake,Mus musculus [34],51.91
same,Organ weight,Rattus norvegicus [35],0.71
same,Water consumption,Rattus norvegicus [36],197.16 mL
CCCCCCCCCCCCOc1cc(O)c2c(=O)cc(-c3ccccc3)oc2c1,Blood glucose,Mus musculus [6],465.6 mg/dL
same,Blood glucose,Mus musculus [7],381.3 mg/dL
same,Ratio,[3],81.9
CCCCOc1cc(OCCCC)c2c(=O)cc(-c3ccccc3)oc2c1,Blood glucose,Mus musculus [4],454.4 mg/dL
same,Blood glucose,Mus musculus [5],405.7 mg/dL
same,Ratio,[3],89.3
CC(=O)Oc1ccccc1C(=O)Oc1cc(O)c2c(=O)cc(-c3ccccc3)oc2c1,Blood glucose,Mus musculus [37],489.3 mg/dL
same,Blood glucose,Mus musculus [38],500.9 mg/dL
same,Ratio,[3],102.4
CCCCCCCCOc1cc(O)c2c(=O)cc(-c3ccccc3)oc2c1,Blood glucose,Mus musculus [6],411.2 mg/dL
same,Blood glucose,Mus musculus [7],211.4 mg/dL
same,Activity,Mus musculus [8],abnormal symptoms in treated mouse
same,Activity,Mus musculus [9],abnormal symptoms in treated mouse
same,Activity,Mus musculus [10],abnormal symptoms in treated mouse
same,Activity,Mus musculus [11],abnormal symptoms in treated mouse
same,Body weight,Mus musculus [12],24
same,Body weight,Mus musculus [13],30.1
same,Body weight,Mus musculus [14],23.8
same,Body weight,Mus musculus [15],30.8
same,Body weight,Mus musculus [16],24.8
same,Body weight,Mus musculus [17],31.6
same,Body weight,Mus musculus [18],25.5
same,Body weight,Mus musculus [19],32.1
same,Food intake,Mus musculus [20],51.41 g
same,Food intake,Mus musculus [21],52.57 g
same,Food intake,Mus musculus [22],50.6 g
same,Water consumption,Mus musculus [23],82.83 mL
same,Water consumption,Mus musculus [24],81.67 mL
same,Water consumption,Mus musculus [25],80.75 mL
same,Water consumption,Mus musculus [26],79.83 mL
same,Activity,Rattus norvegicus [27],abnormal symptoms in treated mouse
same,Body weight,Rattus norvegicus [28],230.8
same,Body weight,Rattus norvegicus [29],290.8
same,Food intake,Rattus norvegicus [30],113.08 g
same,Organ weight,Rattus norvegicus [32],9.96
same,Organ weight,Rattus norvegicus [33],1.26
same,Ratio,[3],51.4
same,Food intake,Mus musculus [34],51.28 g
same,Organ weight,Rattus norvegicus [35],0.69
same,Water consumption,Rattus norvegicus [36],205.91 mL
